Several values for one entry are separate records, joined by “and”; a condition that tells them apart may be missing. Identical values can stand only once. Numbers after ± are expanded uncertainties.
Conditions: 101.33 kPa, Liquid, Pulse-echo method

[Ge] [germanium]
Conditions | speed of sound
1216 K | 2690.9 ± 44 m/s and 2689.9 ± 44 m/s
1233 K | 2690.8 ± 44 m/s and 2691.1 ± 44 m/s
1252 K | 2689.5 ± 44 m/s and 2696.2 ± 44 m/s
1270 K | 2692 ± 44 m/s and 2695 ± 44 m/s
1289 K | 2690.8 ± 44 m/s and 2700.4 ± 44 m/s
1307 K | 2690.6 ± 44 m/s and 2695 ± 44 m/s
1352 K | 2673.6 ± 44 m/s and 2678.4 ± 44 m/s
1398 K | 2662.8 ± 44 m/s and 2666.3 ± 44 m/s
1443 K | 2652.5 ± 44 m/s and 2654.4 ± 44 m/s

[Si] [silicon]
Conditions | speed of sound [m/s]
1723 K | 3916.1 ± 64
1748 K | 3929 ± 64
1755 K | 3945.9 ± 65
1789 K | 3973.3 ± 65
1795 K | 3969 ± 65
1823 K | 3976.3 ± 65
1852 K | 4003 ± 66
1889 K | 4020 ± 66

[Pb] [lead]
Conditions | speed of sound [m/s]
610 K | 1834 ± 30
626 K | 1810.5 ± 30
678 K | 1790.3 ± 29
703 K | 1784 ± 29
787 K | 1769.8 ± 29
814 K | 1749 ± 29
897 K | 1729.8 ± 28
1078 K | 1688 ± 28

[Sn] [tin]
Conditions | speed of sound [m/s]
608 K | 2470 ± 41
804 K | 2408 ± 40
814 K | 2416 ± 40
919 K | 2379 ± 39
1012 K | 2366 ± 39
1025 K | 2332 ± 38
1218 K | 2306 ± 38
1453 K | 2234 ± 37
1463 K | 2242 ± 37

— the NIST ThermoML archive (doi:10.1007/s10765-007-0151-9)
